These results are taken from patent US9682050B2, “Methods of treating lactose intolerance” (Nogra Pharma Limited, priority 2012, dated 2017).

The test system of data set [1] is human lactase gene. As to the kind of experiment: Lactase mRNA expression (qPCR) in Caco-2 cells stimulated with PPAR agonists. Format: cell-based. The conditions noted are these: for LCT gene expression in Caco2 cells: summary statement. How it is done:
Caco-2 colonic adenocarcinoma cell lines were used. Caco-2 cells grew in Dulbecco's modified Eagle's medium (DMEM, Invitrogen, Cergy-Pontoise, France) supplemented with 20% foetal calf serum (FCS, Dutscher, Brumath, France), 1% penicillin-streptomycin (5 ml/l) (Invitrogen) and 1% non-essential amino acids (5 ml/l) (Invitrogen). All cell lines were cultured as confluent monolayers at 37° C. in a controlled, 5% CO2 atmosphere. Each week, the confluent monolayer were trypsinized (Invitrogen) and then replated after a 1:10 dilution. For the stimulation experiments, cells were placed in 6-well plates at a density of 1×10^6 cells per well. Serum deprivation was used 16 hours prior to stimulation in order to synchronize the cells.
The cells were treated with Compound 34 (1 mM and 30 mM), 5-ASA (30 mM), or pioglitazone (1 μM). When necessary, the vehicle DMSO (Sigma) is used as control (Ctrl). After 24 hrs of stimulation, the wells were rinsed three times with sterile PBS at 4° C. The cells were then lysed with lysis buffer (RA1, Macherey-Nagel) containing 1% β-mercaptoethanol. The plates were frozen at −80° C. for subsequent RNA extraction. A time course experiment consisting of stimulation of Caco-2 cells by compound 34, 1 mM during 6 hrs and 12 hrs was also done in order to compare gene expression according treatment duration.
Total RNA were extracted with a Nucleospin RNA kit (Macherey-Nagel, Hoerdt, France). After RNAse inactivation, the total RNA was cleaned of trace genomic DNA via a DNAse treatment and eluted in RNAse-free, DEPC-free water. The purity of the RNA will be evaluated by UV spectroscopy on a Nanodrop system from 220 to 350 nm. Before microarray experiment, RNAs were also profiled on an Agilent 2100 bioanalyzer. One μg of total RNA were used in the microarray analysis (minimum concentration: 50 ng/μl).
(§1) Transcripts of genes were estimated by quantitative PCR (qPCR) in order to confirm microarrays results. 1 μg of total RNA was reverse-transcripted into cDNA using the High Capacity cDNA Achive kit (Applied biosystems). qPCR was performed using an ABI PRISM 7000 sequence detection system (Applied Biosystem). Primer pairs for each transcript were chosen with qPrimer depot software. Quantification of qPCR signals was performed using ΔCt relative quantification method using GAPDH as a reference gene. The values were represented in terms of relative quantity of mRNA level variation or fold increase compared to control conditions.
Each experiment has been done at least twice. The lactase gene expression was first confirmed to be stimulated by compound 34 at two different concentrations (1 mM, fold increase 4.78, p=0.0002; 30 mM, fold increase 7.9, p=0.0006) (FIG. 4A).
A general note: Real-time PCR tracks product formation cycle by cycle.

The test system of data set [2] is PPAR semi deficient epithelial cells. As to the kind of experiment: LCT gene expression in PPAR knock down (ShPPAR) Caco-2 cells. Format: cell-based, human. How it is done:
as §1
PPARγ knock down IECs were obtained using the pSUPER.retro system (OligoEngine). Forward and reverse target sequences corresponding to nucleotides 105-123 of the human PPARg mRNA (5-′-GCCCTTCACTACTGTTGAC-3′ (SEQ ID NO: 1)) were cloned into the BglII/XhoI restriction sites of the pSUPERretro vector (pRS) giving the ShPPAR construct. A negative control pRS plasmid containing the sequence 5′-ACGCTGAGTACTTCGAAAT-3′ (SEQ ID NO: 2) targeted against the luciferase gene was also generated (ShLuc construct). Both constructions were transfected in Caco-2 cells using Nucleofector technology from Amaxa Biosystems, according to the manufacturer's protocol. […] The silencing of PPARg expression was checked by quantitative RT-PCR and western-blot analysis. […]

For `CCc1ccc(CCOc2ccc(CC3SC(=O)NC3=O)cc2)nc1` (centres unmarked) [pioglitazone], the “lactase mRNA expression, fold increase” value in data set [1] (1 μM, 24 hrs, Caco-2 cells) is 11.76 fold. Further, the “LCT gene expression in Caco2 cells” value in data set [1] is recorded as “enhance LCT gene expression”.
For the compound `Nc1ccc(O)c(C(=O)O)c1` [5ASA, 5-amino salicyclic acid], the “lactase gene expression, fold increase” value in data set [1] (30 mM, 24 hrs, Caco-2 cells) is 12.69 fold. Besides, the “LCT gene expression in Caco2 cells” value in data set [1] is “enhance LCT gene expression”. The “LCT gene expression in PPAR semi deficient epithelial cells” value in data set [2] is on record as “kept their upregulatory effects”.
